Reference: US20170260169A1, “INHIBITORS FOR STEROID RESPONSE ELEMENTS AND RNA POLYMERASE II AND RELATED METHODS” (priority 2007, published 2017)

How the values were obtained:
[1] = Multiple-dose subcutaneous injections, male C57BL/6J mice; type: in vivo; details: 1 mg/kg SC every 3 days
Protocol: In addition to single dose injections, the effects of repeated dosing of polyamides 77-80 in mice were examined. In this experiment, 8 week-old male C57BL/6J mice (n=3 per dosing group) were treated with 1 mg/kg of polyamides 77-80 by subcutaneous injection every 3 days, for a cycle of three injections and then sacrificed two days after the final injection (FIG. 31A). As in the single dosing experiments, two mice per group were subjected to histopathology analysis and all blood samples were sent for analysis. […] These mice were promptly euthanized.
Serum from treated animals were collected by retroorbital bleeding. […] All samples were sent for analysis at IDEXX-RADIL.

[2] = previous assay, 0.3 mg/ml enzyme (34); cited from earlier work
[3] = cited from earlier work
[4] = Liver microsomal stability, human
Protocol: Briefly, each polyamide was incubated with 1 mg/ml human or mouse microsomes at 37° C. The reaction was incubated in 100 mM KH2PO4, 2 mM NADPH, 3 mM MgCl2 at pH 7.4. Samples were also incubated in the absence of NADPH to detect NADPH-free degradation. After 60 min the samples were mixed with an equal volume of ice cold methanol stop solution. The mixture was allowed to sit on ice for at least 10 min and mixed with an equal volume of water. The samples were then centrifuged to remove the precipitates and the samples were analyzed by LC/MS/MS. Data represents % remaining by comparing with time zero concentration. The experiments were performed in duplicate.

[5] = Liver microsomal stability, mouse
[6] = Escalating single dose subcutaneous injections, male C57BL/6J mice (weight, histopathology, serum)
Protocol: Representative mice (n=2 per dosing group unless otherwise noted) were subjected to histopathology analysis by a veterinary pathologist. Blood from all mice was sampled and sent for analysis of serum markers of target organs. […] These mice were euthanized when significant duress was apparent.
All animal experiments were conducted under an approved protocol at the California Institute of Technology. Animals were allowed to adjust for 3 days after arrival before treatment. […] Animals were monitored daily for weight loss over 9 days and sacrificed. […] Weight was recorded on days of injection and at the experiment endpoint.
Sacrificed animals from weight loss experiments were fixed in 10% formalin and sent for histopathology analysis by IDEXX-RADIL. Histopathologic analysis was performed on the cecum, duodenum, heart, ileum, kidney, liver, lung, pancreas, spleen, and stomach. Tissue analysis was performed as a blind study to the identity of the animals.
Serum from treated animals were collected by retroorbital bleeding. Blood samples were centrifuged at 6,000 rpm for 5 min to collect the serum. Serum ALT, AST, total bilirubin, BUN, and creatinine levels were sent for analysis by IDEXX-RADIL. Serum analysis was performed as a blind study to the identity of the animals.

[7] = system: ARE of the PSA promoter; assay: Quantitative DNase I footprint titration on pAR-PSA fragment; type: binding
From the text: Plasmid pAR-PSA was constructed by inserting a 70-bp sequence from the PSA promoter containing the ARE into pUC19 plasmid. […] Detailed experimental protocols are reported elsewhere (44). The proximal PSA promoter contains the ARE [NT] ID NO:15) (FIG. 8A). […] However, 1 is observed to bind the sequence [NT]≈12 bp 5' to the ARE, which is an expected binding site for this molecule.

[8] = system: binding of LNCaP nuclear extract factors to the ARE site in the PSA promoter; assay: Electrophoretic mobility shift assay with DHT-stimulated LNCaP nuclear extract; type: biochemical; details: same concentrations
Protocol: containing the PSA promoter ARE (underlined) was end-labeled with ^32P and annealed to its complement. Polyamides 1 and 2 were incubated with the duplex for 3 h in previously optimized buffer conditions (45). Nuclear extract from DHT-treated LNCaP cells (Genetex, San Antonio, Tex.) was then added for an additional 45 min. Complexes were run on a 5% polyacrylamide gel and visualized on a phosphorimager.
The effects of polyamides 1 and 2 on the binding of factors present in the nuclear extract isolated from DHT-stimulated LNCaP cells to the ARE site in the PSA promoter was measured by an electrophoretic mobility shift assay (FIG. 8D).

[9] = system: PSA mRNA expression in LNCaP cells; assay: DHT-induced PSA mRNA in LNCaP cells, quantitative real-time RT-PCR; type: cell-based
Protocol: LNCaP cells (ATCC) were plated in 24-well plates at a density of 40-50×10^3 cells per well (80-100×10^3 cells per ml) in RPMI medium 1640 (ATCC) supplemented with 10% FBS (Irvine Scientific, Santa Ana, Calif.). After 72 h, the medium was replaced with RPMI medium 1640 containing 10% charcoal stripped FBS with or without polyamides at the designated concentrations. Cells were grown for an additional 48 h and then treated with 1 nM DHT for 16 h. When appropriate, bicalutamide was added 2 h before DHT stimulation. Isolation of RNA and cDNA synthesis was performed as described (21). Quantitative real-time RT-PCR was performed with SYBR Green PCR Master Mix (Applied Biosystems, Foster City, Calif.) on an ABI 7300 instrument. PSA mRNA was measured relative to β-glucuronidase as an endogenous control.

[10] = system: AR occupancy at the PSA promoter and enhancer; assay: Chromatin immunoprecipitation with anti-AR, PSA promoter and enhancer; type: cell-based
Protocol: LNCaP cells were plated in 15-cm diameter plates at a density of 2×10^6 cells per plate. Media, polyamide treatment, time course, and DHT stimulation were the same as described above. After the 16-h DHT treatment, cells were treated with 1% formaldehyde for 10 min. Chromatin was isolated and sheared. Antibodies to AR (AR-20, Santa Cruz Biotechnology, Santa Cruz, Calif.) were used to immunoprecipitate AR-bound DNA fragments. Crosslinks were reversed, and PCRs using primers targeted to the regions of interest were used to assess enrichment of bound fragments as compared with mock-precipitated (no antibody) controls. PCRs were monitored with SYBR Green PCR Master Mix (Applied Biosystems) on an ABI 7300 instrument. Primer sequences and a more detailed experimental protocol are available upon request.

[11] = system: FKBP5 mRNA expression in LNCaP cells; assay: DHT-induced FKBP5 mRNA in LNCaP cells; type: cell-based
[12] = system: AR occupancy at the FKBP5 intronic enhancer; assay: Chromatin immunoprecipitation with anti-AR, FKBP5 fifth intron enhancer; type: cell-based; details: 10 μM
[13] = system: transcripts in DHT-stimulated LNCaP cells; assay: Gene expression with Affymetrix Human Genome U133 Plus 2.0 arrays, DHT-stimulated LNCaP cells; type: cell-based
Protocol: LNCaP cells were plated in 12-well plates at a density of 80-100×10^3 cells per well. Media, polyamide treatments, and time courses were the same as described above. Bicalutamide was added 2 h before DHT stimulation. RNA was isolated as described in ref. 21. From this point, experiments were carried out at the Millard and Muriel Jacobs Gene Expression Facility at the California Institute of Technology. Labeled mRNA was hybridized to Affymetrix high-density Human Genome U133 Plus 2.0 arrays according to established protocols. Gene expression was analyzed by using Resolver (Rosetta Biosoftware, Seattle, Wash.). Data were uploaded to the Gene Expression Omnibus repository (accession no. GSE7708).
Global effects of polyamides 1 and 2 and bicalutamide on gene expression in DHT-stimulated LNCaP cells were monitored with Affymetrix (Santa Clara, Calif.) high-density Human Genome U133 Plus 2.0 arrays, which interrogate >50,000 transcripts.

[14] = system: GILZ mRNA expression in A549 cells; assay: Dexamethasone-induced GILZ mRNA in A549 cells, quantitative real-time RT-PCR; type: cell-based
[15] = system: RPB1; assay: RPB1 protein ELISA in LNCaP cells; type: cell-based; details: polyamide 10 μM 72 hr; doxorubicin 1 μM 24 hr
Protocol: […] Cells treated with DMSO vehicle and 1 μM doxorubicin for 24 h were used as control. Cellular RBP1 levels were determined by a RPB1 specific ELISA kit (Cusabio Life Sciences) according to manufacturer's instructions. Total cellular p53 protein level was determined with a pan-p53 ELISA kit (Roche) according to manufacturer's instructions. Assays were performed in biological triplicates.

[16] = system: p53; assay: p53 protein ELISA in LNCaP cells; type: cell-based; details: polyamide 10 μM 72 hr; doxorubicin 1 μM 24 hr
Protocol: Cellular levels of RPB1 and p53 protein in LNCaP cells after treatment with 10 μM 3 for 72 h were determined by ELISA. Cells treated with DMSO vehicle and 1 μM doxorubicin for 24 h were used as control. Cellular RBP1 levels were determined by a RPB1 specific ELISA kit (Cusabio Life Sciences) according to manufacturer's instructions. Total cellular p53 protein level was determined with a pan-p53 ELISA kit (Roche) according to manufacturer's instructions. Assays were performed in biological triplicates.

[17] = system: DNA damage in LNCaP cells; assay: Alkaline comet assay in LNCaP cells; details: polyamide 10 μM 48 h; dox 5 μM 4 h
Protocol: LNCaP cells were plated at 1 million cells per 10 cm plate and allowed to adhere for 24 to 36 h. Cells were then incubated with either 10 μM 77 for 48 h or 5 μM doxorubicin for 4 h. DNA damage was assayed using the Trevigen CometAssay® system and samples were prepared from harvested cells according to the manufacture protocol. Comets were imaged on a confocal microscope (Exciter, Zeiss) at 10× magnification. Percentage of DNA in the tail was determined using Comet Assay Lite IV (Perceptive Instruments). More than one hundred comets were scored for each condition.
LNCaP cells were plated in 6 well plates at 100,000 cells per well and allowed to adhere for 36-48 h. The cells were then incubated with either 10 μM 78 for 48 h or 5 μM doxorubicin for 4 h. DNA damage was assayed using the Trevigen CometAssay system. Cells were harvested by gentle aspiration with PBS and prepared on slides according to the manufacturer's protocol. Comets slides were imaged on a confocal microscope (Exciter, Zeiss) at 10× magnification. Images were scored using Comet Assay Lite IV (Perceptive Instruments). More than 100 comets were scored for each condition. DNA damage is reported as percentage of DNA in the tail.

[18] = 1 μM, Human, 1 hr at 37° C., 1 mg/ml microsomes
[19] = 1 μM, Mouse, 1 hr at 37° C., 1 mg/ml microsomes
[20] = 10 μM, + DHT, relative to DHT-induced controls, p ≦ 0.01
[21] = relative to DHT-induced controls, + DHT

**Q.** Which results are given for `CC(=O)N[C@@H](CNC(=O)c1cc(NC(=O)c2cc(NC(=O)c3cc(NC(=O)c4nccn4C)cn3C)cn2C)cn1C)CC(=O)Nc1cn(C)c(C(=O)Nc2cc(C(=O)Nc3cc(C(=O)Nc4cc(C(=O)NCCCN(C)CCCNC(=O)c5cccc(C(=O)O)c5)n(C)c4)n(C)c3)n(C)c2)n1` [Polyamide 80, ImPyPyPy-3-(R)^AcHNγ-ImPyPyPy-NHMe-IPA]?
**A.** liver and kidney histopathology [1]: marked hepatocellular necrosis and apoptosis in the liver and hyaline droplet accumulation in the kidneys; weight and physical morbidity ([1]; three injections): dramatic weight loss, loss of mobility, and hunched posture within six days; stability against rat and human microsomes [2]: stable; animal toxicity after single subcutaneous administration ([3]; female C57BL/6J mice, 77 at 2.5 and 5 mg/kg, 80 at 2.3 and […]): acute animal toxicity in addition to weight loss; renal clearance ([3]; mouse, in vivo): significant renal clearance was exclusive to 80; Mean remaining parent NADPH-free [4, 18]: 3.8%; Mean remaining parent with NADPH [4, 18]: 3.0%; intact after 1 hour incubation ([4]; human liver microsomes, with or without NADPH): less than 5%; Mean remaining parent NADPH-free [5, 19]: 4.9%; Mean remaining parent with NADPH [5, 19]: 4.0%; intact after 1 hour incubation ([5]; mouse liver microsomes, with or without NADPH): less than 5%; tolerability, behavior and morbidity after single SC dose ([6]; 1, 3, 10 mg/kg): only tolerated at 1 mg/kg; kidney histopathology ([6]; single SC 1 mg/kg): Milder tubular regeneration and karyomegaly; liver histopathology ([6]; single SC 1 mg/kg): Mild hepatocellular necrosis and apoptosis; kidney histopathology ([6]; single SC 3 mg/kg): Moderate atypical tubular regeneration; liver histopathology ([6]; single SC 3 mg/kg): multifocal bridging hepatocellular necrosis and apoptosis; spleen histopathology ([6]; single SC 3 mg/kg): Mild lymphoid apoptosis in the white pulp of the spleen; kidney histopathology ([6]; single SC 10 mg/kg): Moderate atypical tubular regeneration; liver histopathology ([6]; single SC 10 mg/kg): multifocal bridging hepatocellular necrosis and apoptosis; spleen histopathology ([6]; single SC 10 mg/kg): Mild lymphoid apoptosis in the white pulp of the spleen; serum kidney markers creatinine and BUN ([6]; single SC dose): significantly elevated creatinine and BUN at 10 mg/kg, and elevated BUN at 3 mg/kg; serum liver markers AST, ALT, total bilirubin ([6]; single SC dose): marked and severe elevations of AST, ALT, and total bilirubin at both 3 mg/kg and 10 mg/kg

**Q.** Which “binding in the footprinted region” value [7] does the source give for `CN(CCCNC(=O)c1cccc(C(=O)O)c1)CCCNC(=O)c1cc(NC(=O)c2cc(NC(=O)c3nc(NC(=O)c4cc(NC(=O)[C@H](N)CCNC(=O)c5nc(NC(=O)c6cc(NC(=O)c7cc(NC(=O)c8nccn8C)cn7C)cn6C)cn5C)cn4C)cn3C)cn2C)cn1C` [Polyamide 2] here?
**A.** no measurable binding

**Q.** And the Ka ([7]; ARE consensus half-site 5′-AGAACA-3′)?
**A.** < 1e+07 M⁻¹

**Q.** What about the “effect on binding to the labeled duplex” value [8] of the same molecule?
**A.** minimal effect

**Q.** What about the “effect on DHT-induced PSA mRNA” value [9] of the same molecule?
**A.** more modest effect

**Q.** And the “effects on cell growth” value ([9]; LNCaP, over the course of the experiment)?
**A.** no obvious detrimental effects on cell growth

**Q.** And the “occupancy of AR at the PSA promoter and enhancer” value ([10]; 1 μM as printed)?
**A.** minimal effect

**Q.** And the “AR occupancy at the PSA promoter and enhancer” value ([10]; 10 μM, FIG. 9 legend)?
**A.** not

**Q.** What about the “effect on FKBP5 expression” value [11] of the same molecule?
**A.** minimal effect

**Q.** What about the “occupancy of AR at the FKBP5 intronic enhancer” value [12] of the same molecule?
**A.** no measurable effect

**Q.** What about the “Number of transcripts down-regulated (fold change ≦ −2.0)” value [13, 20] of the same molecule?
**A.** 284

**Q.** And the “Number of transcripts down-regulated (fold change ≦ −4.0)” value [13, 20]?
**A.** 32

**Q.** And the “Number of transcripts up-regulated (fold change ≧ 2.0)” value [13, 20]?
**A.** 95

**Q.** And the “Number of transcripts up-regulated (fold change ≧ 4.0)” value [13, 20]?
**A.** 11

**Q.** What about the “number of transcripts affected by at least 2-fold” value ([13]; 10 μM, P≦0.01, vs DHT-induced controls) of the same molecule?
**A.** 379

**Q.** And the “share of interrogated transcripts affected” value ([13]; 10 μM, at least 2-fold)?
**A.** < 1%

**Q.** And the “number of the 88 DHT-repressed transcripts derepressed at least 2-fold” value ([13]; P≦0.01)?
**A.** 3

**Q.** What about the “number of the 199 DHT-induced transcripts inhibited at least 2-fold” value ([13]; P≦0.01) of the same molecule?
**A.** 20

**Q.** What about the “Fold-change of FKBP5” value [13, 21] of the same molecule?
**A.** 1.5

**Q.** And the “Fold-change of KLK2” value [13, 21]?
**A.** −1.1

**Q.** What about the “Fold-change of KLK3 (PSA)” value [13, 21] of the same molecule?
**A.** −1.4

**Q.** What about the “Fold-change of TMPRSS2” value [13, 21] of the same molecule?
**A.** −1.4

**Q.** And the “effect on GILZ mRNA induction” value [14]?
**A.** more modest effect

**Q.** Which RPB1 protein [15] does the source give for `COc1cccc2c1C(=O)c1c(O)c3c(c(O)c1C2=O)C[C@@](O)(C(=O)CO)C[C@@H]3O[C@H]1C[C@H](N)[C@H](O)[C@H](C)O1` [doxorubicin, reference compound] here?
**A.** decreases

**Q.** And the “cellular level of p53 protein” value [16]?
**A.** increases

**Q.** What about the “DNA damage by comet assay” value [17] of the same molecule?
**A.** significantly increases comet-tail percent of DNA
